Data as given in patent US9902725B2, “Heterocyclic derivatives as RORgamma modulators” (GENFIT, priority 2014, dated 2018).

Experiments:
MOG-induced EAE mice = test: MOG-induced EAE in mice, clinical score; format: in vivo
Protocol: 8-10 week old, male C57BL/6 mice were purchased from Janvier Lab (St Berthevin, France) and housed in a specific pathogen free (SPF) animal facility for one week before the start of the studies. Peptide antigen MOG35-55 (Myelin Oligodendrocyte Glycoprotein) ([…], SEQ ID NO:1, Polypeptide group, France) was dissolved in PBS and emulsified with an equal volume of Complete Freund's Adjuvant (CFA) containing 5 mg/mL of mycobacteria and administrated by subcutaneous injection at the dorsal flanks on day 0 at 200 μg/mouse. To ensure induction of reliable EAE, 200 ng of Bordetella pertussis toxin (Sigma) was given via intraperitoneal injection at day 0 and 2 (Cua, Sherlock et al. 2003; Zhang, Gran et al. 2003). Animals were treated with drug beginning 2 days before peptide injection. Animals were randomized into groups for treatment by weight, so that the average weight of each group was similar. The groups were segregated by cage. Compounds according to the invention were suspended in Carboxymethyl Cellulose (CMC) 1% (Sigma) and Tween80 0.1% (Sigma) by sonication and animals were dosed daily by gavage with 10 mL/kg body weight. The daily dose of Cpd. 1 was 30 mg/kg and vidofludimus (reference compound) at 60 mg/kg in protocol 1 to assess IL-17 A and IL-17F secretion from splenocytes ex vivo. In protocol 2, mice were treated with Cpd. 1 at 3 and 10 mg/Kg or T4 compound at 1 and 10 mg/kg daily by gavage to assess the clinical score. Clinical assessment of EAE was performed daily according to the following criteria: 0) no disease, 1) limp tail, 2) weak/partially paralyzed hind legs, 3) completely paralyzed hind legs, 4) complete hind and partial front leg paralysis, and 5) complete paralysis/death. For Cytokine quantifications, mice were euthanized 20 days after EAE induction. Spleen-isolated cells were collected and adjusted to 2×10^6 cells/mL. Cells were cultured in complete RPMI medium (RPMI supplemented with 10% of fetal calf serum, 1% glutamine, and 1% penicillin/streptomycin). Spleen cells were stimulated with MOG (20 μg/mL) (Polypeptide group, France). Cytokine levels were evaluated 48 h later by ELISA (R&D Systems Europe) or HTRF (CisBio, France) in culture supernatants using IL-17A and IL-17-F according to the manufacturer's protocols. The statistical significance was based on Student's t test (p<0.05, unpaired test).

human RORγt = target: T1, human RORγt (Homo sapiens, UniProt P51449); test: RORE luciferase/RORγt transactivation assay; format: cell-based; design: expressed in transfected cells; settings: COS-7 cells transfected with IL-17 promoter luciferase reporter and RORγt plasmid, 20 h
T1 sequence (P51449 1-497 isoform P51449-2): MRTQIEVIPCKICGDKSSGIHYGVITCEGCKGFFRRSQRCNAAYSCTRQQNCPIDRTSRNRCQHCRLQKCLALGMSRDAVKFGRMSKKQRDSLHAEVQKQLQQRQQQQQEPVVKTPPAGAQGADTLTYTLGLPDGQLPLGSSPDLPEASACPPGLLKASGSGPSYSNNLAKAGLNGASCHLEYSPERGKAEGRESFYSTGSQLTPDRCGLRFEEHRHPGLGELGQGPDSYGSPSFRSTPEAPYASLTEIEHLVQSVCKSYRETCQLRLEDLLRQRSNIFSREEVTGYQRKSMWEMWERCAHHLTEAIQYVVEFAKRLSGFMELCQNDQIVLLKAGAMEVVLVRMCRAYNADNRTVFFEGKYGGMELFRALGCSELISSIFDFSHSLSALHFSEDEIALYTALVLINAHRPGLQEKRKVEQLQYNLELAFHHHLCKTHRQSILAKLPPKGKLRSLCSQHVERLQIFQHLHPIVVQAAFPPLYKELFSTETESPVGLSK
Source text: It is well known that RORγ binds to a conserved non-coding sequence (CNS) enhancer element in the IL-17 promoter. Accordingly, we have used in this assay a luciferase reporter gene construct that contains the human IL-17 promoter fragment with RORγ-specific CNS enhancer element and a RORγt overexpressing plasmid, to indirectly assess the effect of compounds on RORγ activity. Inhibition of RORγ activity by test compounds will result in a decrease in luciferase activity in COS-7 cells transfected with the reporter construct.
Monkey Kidney COS-7 cell line are maintained in a standard culture medium Dulbecco's modified Eagle's minimal (DMEM) medium supplemented with 10% fetal calf serum, 1% sodium pyruvate, 1% essential amino acids and 1% antibiotics at 37° C. in a humidified atmosphere of 5% CO2 and 95% air. Culture medium was changed every 2 days.
The 4.3 Kb human IL-17 promoter containing the RORγ-specific CNS enhancer element was PCR amplified from human genomic DNA and cloned into a pGL3-TKLuc2Cp reporter plasmid. To overexpress RORγt, the full-length cDNA of human RORγt (identical to published sequence NM 001001523) was cloned without any restriction into pcdna3.1DV5-His-topo to generate the RORγt overexpression plasmid “RORγt_FL_h_pcDNA3.1DV5-His-TOPO_1”.
The luciferase reporter plasmid and the RORγt overexpression plasmid were transfected into COS-7 cell line using 4 μLJetPEITM/μg of DNA. Briefly, 150 ng of DNA (ration ½ between RORE-Tk Luc2Cp and cDNA RORγt or the empty vector for the negative control) was served to transfect adherent COS-7 cells in a […] culture flask, in complete medium (see cos-7 cell line culture). Cells were incubated for 24 hours in a humidified atmosphere of 5% CO2 and 95% air
Cells were then detached (using trypsin) and washed by centrifugation at 300 g for 10 minutes. Cell pellet was resuspended in serum free/phenol red free DMEM and seeded in 384 well plates at a density of 10000 cells/well and then incubated for 4 h at 37° C.
Compounds were dissolved in 100% DMSO to obtain 10 mM stock solutions. For each compound, test concentrations were diluted in serum free/phenol red free DMEM using the Genesis Freedom 200™ (TECAN) and added to the cells to obtain a 0.3% DMSO final concentration (in a final volume of 40 μL per well). T091317 was used as reference compound. Cells were incubated in presence of compounds for an additional 20 h at 37° C. in a humidified atmosphere of 5% CO2 and 95% air
The luciferase activity was then measured with 40 μL/well steady-Glo Luciferase assay system (Promega, Madison, Wis.) and after incubation at room temperature for 30 minutes. The luminescence was estimated using the Ultra384 reader (TECAN). Data were collected and analyzed using GraphPad Prism software (GraphPad Software V5.02, San Diego Calif. USA). IC50 in μM and Emax in % were reported for each compound.

| IC50 (human RORγt) [nM] | Compound | onset of EAE (MOG-induced EAE mice; administered p/os (orally) for 20 days) | EAE clinical score (MOG-induced EAE mice; daily by gavage, Cpd. 1 at 3 and 10 mg/Kg, T4 compound at 1 and 10 mg/kg) |
| --- | --- | --- | --- |
| < 1000 | O=C(O)CCc1c[nH]c2ccc(CC(=O)NC(c3ccccc3)c3ccccc3N3CCCCC3)cc12 (stereo not drawn) [Cpd. 1, 3-{5-[({phenyl[2-(piperidin-1-yl)phenyl]methyl}carbamoyl)methyl]-1H-indol-3-yl}propanoic acid] | able to delay the onset of EAE | improvement was apparent |
| < 1000 | O=C(O)CCc1c[nH]c2ccc(CC(=O)NC(c3cccc(F)c3)c3ccccc3N3CCCCC3)cc12 (stereo not drawn) [Cpd. 3, 3-[5-({[(3-fluorophenyl)[2-(piperidin-1-yl)phenyl]methyl]carbamoyl}methyl)-1H-indol-3-yl]propanoic acid] | – | – |
| < 1000 | Cc1ccc(C(NC(=O)Cc2ccc3[nH]cc(CCC(=O)O)c3c2)c2ccccc2)c(N2CCCC2)c1 (stereo not drawn) [Cpd. 5, 3-{5-[({[4-methyl-2-(pyrrolidin-1-yl)phenyl](phenyl)methyl}carbamoyl)methyl]-1H-indol-3-yl}propanoic acid] | – | – |
| < 1000 | CC(C)CC(NC(=O)Cc1ccc2[nH]cc(CCC(=O)O)c2c1)c1ccccc1N1CCCCC1 (stereo not drawn) [Cpd. 29, 3-{5-[({3-methyl-1-[2-(piperidin-1-yl)phenyl]butyl}carbamoyl)methyl]-1H-indol-3-yl}propanoic acid] | – | – |
